Assay results as given in patent US12516053B2, “Bcl-2 inhibitors” (BEIGENE, LTD., priority 2019, dated 2026).
Where two headings read alike, the source gives them in different places.

Assays:
[1] = biological target: BA/F3-BCL-2 cells (Homo sapiens, UniProt P10415); assay: BA/F3 cell proliferation assay, BCL-2 wild type; type: cell-based, Murine; details: 24 hrs treatment, 3% FBS, CellTiter-Glo, geometric mean of 3 experiments; read-out: Cellular proliferation assay (IC50, nM) Bcl-2 WT; BaF3 cell
Experimental: (§1) BA/F3 cell Proliferation Assay:
(§2) The cells were treated with a 10-point dilution series of compounds for 24 hrs. After the compound treatment, 30 μl of CellTiter-Glo reagent was added in each well. The effects on proliferation were determined using Cell TiterGlo reagent (Promega) according to the manufacturer's instructions. Luminescent signals were measured using PHERAstar FS plate reader (BMG Labtech). ICS50 values for cell viability were determined with GraphPad Prism software and were the geometric mean of 3 independent experiments.

[2] = system: Molt-4 (Bcl-xL-dependent ALL cell line); assay: Molt-4 cell proliferation assay; type: cell-based; details: CellTiter-GLO, read-out: Cellular proliferation assay (IC50, nM) Molt-4
Source text: Molt-4 Cell Proliferation Assay:
Each compound was serially diluted with 10 1M as the maximum concentration. The anti-proliferative IC50s of these compounds were similarly determined as a percentage of viable cells upon treatment compared to the untreated control using CellTiter-GLO luminescent assay.

[3] = biological target: Recombinant human Bcl-2 protein (Homo sapiens, UniProt P10415); assay: Bcl-2 TR-FRET assay; type: binding; details: TR-FRET, 0.05 nM Bcl-2, FITC labeled Bak peptide 0.5 nM; read-out: Biochemical assay (IC50, nM) Bcl-2 WT
Experimental: Compounds disclosed herein were tested for blocking of Bcl-2 protein with its ligand in an assay based on Time-Resolved Fluorescence Resonance Energy Transfer (TR-FRET) methodology. Recombinant human 0.05 nM Bcl-2 protein was pre-incubated with a serial dilution of compounds disclosed herein (top final concentration is 1 uM or 0.1 uM or 0.02 uM or 0.01 uM, 10 points) at room temperature for 0.5 hour in an assay buffer containing 20 mM potassium phosphate buffer, pH 7.5, 50 mM NaCl, 1 mM EDTA, 0.05% Tween-20, 0.01% BSA. […] The inhibition percentage of Bcl-2 interaction with its ligand in presence of increasing concentrations of compounds was calculated based on the TR-FRET signals. The IC50 for each compound was derived from fitting the data to the four-parameter logistic equation by Graphpad Prism software or Dotmatics.

[4] = system: RS4;11 (BCL-2 dependent acute lymphoblastic leukemia cell line); assay: RS4;11 cell proliferation assay; type: cell-based; details: CellTiter-GLO, read-out: Cellular proliferation assay (IC50, nM) RS4
Experimental: RS4;11 Cell Proliferation Assay:
Each compound was serially diluted with 1 μM as the maximum concentration. To test the apoptotic effect of the compounds, the cells were seeded at 50,000 in 180 μl per well in 96-well plates and treated with 10-point dilution series of each compound for 48 hrs at 37° C. Cell viability was assessed after the treatment using CellTiter-GLO luminescent assay (Promega) according to the manufacturer's recommendations. Briefly, 30 μl of CellTiter-GLO reagent was added into 200 μl of cell culture, Mixture was agitated on an orbital shaker for 5 mins to ensure cell lysis followed by 7 mins incubation at room temperature to allow development and stabilization of luminescent signals, which corresponded to quantity of ATP and thus the quantity of metabolically active cells. Luminescent signals were measured using PHERAstar FS reader (BMG). Mean IC50 values for cell viability were determined with GraphPad Prism software.

[5] = biological target: recombinant human Bcl-2-G101V protein (Homo sapiens, UniProt P10415, G101V); assay: Bcl-2-G101V TR-FRET assay; type: binding; details: TR-FRET, 0.1 nM Bcl-2-G101V, FITC labeled Bak peptide 5 nM; read-out: Biochemical assay (IC50, nM) Bcl-2 G101V
Source text: The IC50 for each compound was derived from fitting the data to the four-parameter logistic equation by Graphpad Prism software or Dotmatics.

[6] = biological target: BA/F3-BCL-2 G101V cells (Homo sapiens, UniProt P10415, G101V, cells depend on it); assay: BA/F3 cell proliferation assay, Bcl-2 G101V; type: cell-based, Murine; details: 24 hrs treatment, 3% FBS, CellTiter-Glo, geometric mean of 3 experiments; read-out: Cellular proliferation assay (IC50, nM) Bcl-2 G101V; BaF3 cell
Experimental: as §1, §2

[7] = Homo sapiens, RS4-11, 48 hrs treatment

| Compound | IC50 [1] | IC50 [2] | IC50 [3] | IC50 ([4]; 48 hrs treatment) | IC50 [5] | GI50 [6] | IC50 ([2]; Homo sapiens, MOLT-4) | IC50 [4, 7] |
| --- | --- | --- | --- | --- | --- | --- | --- | --- |
| 2-(2,3-dihydropyrrolo[3′,2′:56]pyrido[2,3-b][1,4]oxazin-1(6H)-yl)-N-((4-((((1r,4r)-4-hydroxy-4-methylcyclohexyl)methyl)amino)-3-nitrophenyl)sulfonyl)-4-(2-((S)-2-(2-isopropylphenyl)pyrrolidin-1-yl)-7-azaspiro[3,5]nonan-7-yl)benzamide [Example B3] | 1.1 nM | 4540 nM | 0.063 nM | 1.1 nM | 0.94 nM | 10.8 nM | – | – |
| CC(C)c1ccccc1[C@@H]1CCCN1C1CC2(CCN(c3ccc(C(=O)NS(=O)(=O)c4ccc(NCC5(F)CCOCC5)c([N+](=O)[O-])c4)c(N4CCCOc5nc6[nH]ccc6cc54)c3)CC2)C1 [Example B2, (S)-2-(3,4-dihydro-2H-pyrrolo[3′,2′:5,6]pyrido[2,3-b][1,4]oxazepin-1(7H)-yl)-N-((4-(((4-fluorotetrahydro-2H-pyran-4-yl)methyl)amino)-3-nitrophenyl)sulfonyl)-4-(2-(2-(2-isopropylphenyl)pyrrolidin 1-yl)-7-azaspiro[3,5]nonan-7-yl)benzamide] | 0.82 nM | – | 0.05 nM | – | 1.8 nM | 7.8 nM | 5560 nM | 1.7 nM |
| CC(C)c1ccccc1[C@@H]1CCCN1C1CC2(C1)CN(c1ccc(C(=O)NS(=O)(=O)c3ccc(NCC4(F)CCOCC4)c([N+](=O)[O-])c3)c(N3CCOc4nc5[nH]ccc5cc43)c1)C2 [Example B12, (S)-2-(2,3-dihydropyrrolo[3′,2′:5,6]pyrido[2,3-b][1,4]oxazin-1(6H)-yl)-N-((4-(((4-fluorotetrahydro-2H-pyran-4-yl)methyl)amino)-3-nitrophenyl)sulfonyl)-4-(6-(2-(2-isopropylphenyl)pyrrolidin-1-yl)-2-azaspiro[3.3]heptan-2-yl)benzamide] | – | – | 0.058 nM | – | 3.7 nM | – | 7310 nM | 3.6 nM |
| CC(C)c1ccccc1[C@@H]1CCCN1C1CC2(C1)CN(c1ccc(C(=O)NS(=O)(=O)c3ccc(NC[C@H]4CC[C@](C)(O)CC4)c([N+](=O)[O-])c3)c(N3CCCOc4nc5[nH]ccc5cc43)c1)C2 [Example B13, 2-(3,4-dihydro-2H-pyrrolo[3′,2′:5,6]pyrido[2,3-b][1,4]oxazepin-1(7H)-yl)-N-((4-((((1r,4r)-4-hydroxy-4-methylcyclohexyl)methyl)amino)-3-nitrophenyl)sulfonyl)-4-(6-((S)-2-(2-isopropylphenyl)pyrrolidin-1-yl)-2-azaspiro[3,3]heptan-2-yl)benzamide] | 2.8 nM | – | 0.094 nM | – | 2.4 nM | 39.1 nM | > 10000 nM | 5.5 nM |
| CC(C)c1ccccc1[C@@H]1CCCN1C1CC2(C1)CN(c1ccc(C(=O)NS(=O)(=O)c3ccc(NCC4(F)CCOCC4)c([N+](=O)[O-])c3)c(N3CCCOc4nc5[nH]ccc5cc43)c1)C2 [Example B14, (S)-2-(3,4-dihydro-2H-pyrrolo[3′,2′:5,6]pyrido[2,3-b][1,4]oxazepin-1(7H)-yl)-N-((4-(((4-fluorotetrahydro-2H-pyran-4-yl)methyl)amino)-3-nitrophenyl)sulfonyl)-4-(6-(2-(2-isopropylphenyl)pyrrolidin-1-yl)-2-azaspiro[3.3]heptan-2-yl)benzamide] | 2.4 nM | – | 0.11 nM | – | 3.1 nM | 26.5 nM | > 10000 nM | 4.8 nM |
| CC(C)c1ccccc1[C@@H]1CCCN1C1CC2(C1)CN(c1ccc(C(=O)NS(=O)(=O)c3ccc(NC[C@H]4COCCO4)c([N+](=O)[O-])c3)c(N3CCCOc4nc5[nH]ccc5cc43)c1)C2 [Example B15, N-((4-((((S)-1,4-dioxan-2-yl)methyl)amino)-3-nitrophenyl)sulfonyl)-2-(3,4-dihydro-2H-pyrrolo[3′,2′:5,6]pyrido[2,3-b][1,4]oxazepin-1(7H)-yl)-4-(6-((S)-2-(2-isopropylphenyl)pyrrolidin-1-yl)-2-azaspiro[3,3]heptan-2-yl)benzamide] | – | – | 0.14 nM | – | 5.2 nM | – | > 10000 nM | 8 nM |

The next compounds have a lower IC50 [3] than those just listed; values first:

| IC50 [1] | IC50 [2] | IC50 [3] | IC50 ([4]; 48 hrs treatment) | IC50 [5] | GI50 [6] | IC50 ([2]; Homo sapiens, MOLT-4) | IC50 [4, 7] | Compound |
| --- | --- | --- | --- | --- | --- | --- | --- | --- |
| – | – | 0.041 nM | – | 2.8 nM | – | > 10000 nM | 3.2 nM | CC(C)c1ccccc1[C@@H]1CCCN1C1CC2(C1)CN(c1ccc(C(=O)NS(=O)(=O)c3ccc(NC[C@H]4CC[C@](C)(O)CC4)c([N+](=O)[O-])c3)c(N3CCOc4nc5[nH]ccc5cc43)c1)C2 [Example B11, 2-(2,3-dihydropyrrolo[3′,2′:5,6]pyrido[2,3-b][1,4]oxazin-1(6H)-yl)-N-((4-((((1R,4R)-4-hydroxy-4-methylcyclohexyl)methyl)amino)-3-nitrophenyl)sulfonyl)-4-(6-((S)-2-(2-isopropylphenyl)pyrrolidin-1-yl)-2-azaspiro[3.3]heptan-2-yl)benzamide] |
| 1 nM | – | 0.04 nM | – | 1.9 nM | 15.5 nM | 6730 nM | 1.7 nM | CC(C)c1ccccc1[C@@H]1CCCN1C1CC2(CCN(c3ccc(C(=O)NS(=O)(=O)c4ccc(NC[C@H]5CC[C@](C)(O)CC5)c([N+](=O)[O-])c4)c(N4CCCOc5nc6[nH]ccc6cc54)c3)CC2)C1 [Example B1] |
| 0.3 nM | – | 0.025 nM | – | 0.86 nM | 9.8 nM | > 10000 nM | 0.47 nM | CC(C)c1ccccc1[C@@H]1CCCN1C1CC2(CCN(c3ccc(C(=O)NS(=O)(=O)c4cc5c(c([N+](=O)[O-])c4)N[C@H](C[C@H]4CC[C@H](O)CC4)CO5)c(Oc4cnc5[nH]ccc5c4)c3)CC2)C1 [Example A4, 2-((1H-pyrrolo[2,3-b]pyridin-5-yl)oxy)-N—(((R)-3-(((1R,4R)-4-hydroxycyclohexyl)methyl)-5-nitro-3,4-dihydro-2H-benzo[b][1,4]oxazin-7-yl)sulfonyl)-4-(2-((S)-2-(2-isopropylphenyl)pyrrolidin-1-yl)7-azaspiro[3,5]nonan-7-yl)benzamide] |
| 0.41 nM | – | 0.024 nM | – | 0.83 nM | 7.5 nM | 5160 nM | 1 nM | CC(C)c1ccccc1[C@@H]1CCCN1C1CC2(CCN(c3ccc(C(=O)NS(=O)(=O)c4cc5c(c([N+](=O)[O-])c4)N[C@H](C[C@H]4CC[C@@H](O)CC4)CO5)c(Oc4cnc5[nH]ccc5c4)c3)CC2)C1 [Example A5, 2-((1H-pyrrolo[2,3-b]pyridin-5-yl)oxy)-N—(((R)-3-(((1s,4S)-4-hydroxycyclohexyl)methyl)-5-nitro-3,4-dihydro-2H-benzo[b][1,4]oxazin-7-yl)sulfonyl)-4-(2-((S)-2-(2-isopropylphenyl)pyrrolidin-1-yl)-7-azaspiro[3,5]nonan-7-yl)benzamide] |
